The target in one assay is PDGF-R (Homo sapiens, UniProt P09619). As to the kind of experiment: PDGF-R ELISA. In kind it is cell-based. The source says:
A PDGF-R ELISA is described in International Patent Publication No. WO 96/40116, published December 19, 1996 by Tang et al.
For orientation: ELISA stands for enzyme-linked immunosorbent assay.

The test system of a further assay is MET. As to the kind of experiment: MET biochemical kinase assay. Set-up: species or system human; concentration or dose not given beside the values. The gist of the method: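 Capture ELISA: anti-rabbit Fc coat, rabbit anti-MET cytoplasmic domain pAb, lysate MET captured, washed. Compound + kinase buffer (ATP, divalent metals). Readout anti-pTyr-HRP/TMB, colorimetric.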

The next assay deals with T1, FLK-1 receptor (Mus musculus, UniProt P35918).
T1 construct: expressed in transfected cells; host or cells: NIH3T3 C7#3
T1 sequence (P35918 20-1345): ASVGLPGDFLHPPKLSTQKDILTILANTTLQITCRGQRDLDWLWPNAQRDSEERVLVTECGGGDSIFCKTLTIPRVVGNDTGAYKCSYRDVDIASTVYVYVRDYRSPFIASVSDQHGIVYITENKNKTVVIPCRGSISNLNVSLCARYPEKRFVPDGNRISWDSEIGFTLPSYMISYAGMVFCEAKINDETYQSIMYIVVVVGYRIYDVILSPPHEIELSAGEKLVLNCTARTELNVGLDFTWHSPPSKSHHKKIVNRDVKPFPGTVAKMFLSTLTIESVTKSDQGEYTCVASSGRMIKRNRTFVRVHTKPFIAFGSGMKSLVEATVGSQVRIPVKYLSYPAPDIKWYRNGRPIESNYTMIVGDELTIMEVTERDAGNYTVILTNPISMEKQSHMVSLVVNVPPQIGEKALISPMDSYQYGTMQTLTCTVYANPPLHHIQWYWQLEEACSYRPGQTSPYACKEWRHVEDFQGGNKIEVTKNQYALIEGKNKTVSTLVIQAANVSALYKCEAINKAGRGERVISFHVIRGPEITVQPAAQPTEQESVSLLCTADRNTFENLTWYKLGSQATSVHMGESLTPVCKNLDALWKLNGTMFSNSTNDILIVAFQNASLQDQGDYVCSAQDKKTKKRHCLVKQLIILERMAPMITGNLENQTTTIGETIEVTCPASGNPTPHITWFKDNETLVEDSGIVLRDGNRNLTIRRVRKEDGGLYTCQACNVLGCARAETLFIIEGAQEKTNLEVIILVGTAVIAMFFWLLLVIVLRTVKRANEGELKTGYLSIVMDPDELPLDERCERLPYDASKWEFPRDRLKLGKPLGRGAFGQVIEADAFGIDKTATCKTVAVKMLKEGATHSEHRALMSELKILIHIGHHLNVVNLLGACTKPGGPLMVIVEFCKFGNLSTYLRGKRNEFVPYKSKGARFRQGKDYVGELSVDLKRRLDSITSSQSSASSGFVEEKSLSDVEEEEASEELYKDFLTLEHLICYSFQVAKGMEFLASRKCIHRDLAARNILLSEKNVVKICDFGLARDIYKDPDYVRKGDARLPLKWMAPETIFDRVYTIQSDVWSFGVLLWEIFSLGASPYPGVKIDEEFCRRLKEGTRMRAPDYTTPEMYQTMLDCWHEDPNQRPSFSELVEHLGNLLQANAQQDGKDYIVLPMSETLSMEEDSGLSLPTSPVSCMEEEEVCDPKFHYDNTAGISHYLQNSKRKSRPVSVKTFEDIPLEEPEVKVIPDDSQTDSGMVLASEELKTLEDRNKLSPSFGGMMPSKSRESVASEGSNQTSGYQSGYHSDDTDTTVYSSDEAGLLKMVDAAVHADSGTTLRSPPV
As to the kind of experiment: FLK-1 ELISA (kinase activity of the FLK-1 receptor in FLK-1/NIH3T3 cells, VEGF stimulated). In kind it is cell-based. In outline:
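An ELISA using affinity-purified rabbit anti-FLK-1 antiserum on anti-rabbit IgG-coated plates measured VEGF-stimulated FLK-1 kinase activity. NIH3T3 C7#3 cells carrying FLK-1 were serum-starved (0.1% FBS) overnight, then exposed to compound (final 1:200 dilution, 0.5% DMSO) for two hours at 37 °C.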

PDGF-R, sequence (P09619 33-1106, species assumed): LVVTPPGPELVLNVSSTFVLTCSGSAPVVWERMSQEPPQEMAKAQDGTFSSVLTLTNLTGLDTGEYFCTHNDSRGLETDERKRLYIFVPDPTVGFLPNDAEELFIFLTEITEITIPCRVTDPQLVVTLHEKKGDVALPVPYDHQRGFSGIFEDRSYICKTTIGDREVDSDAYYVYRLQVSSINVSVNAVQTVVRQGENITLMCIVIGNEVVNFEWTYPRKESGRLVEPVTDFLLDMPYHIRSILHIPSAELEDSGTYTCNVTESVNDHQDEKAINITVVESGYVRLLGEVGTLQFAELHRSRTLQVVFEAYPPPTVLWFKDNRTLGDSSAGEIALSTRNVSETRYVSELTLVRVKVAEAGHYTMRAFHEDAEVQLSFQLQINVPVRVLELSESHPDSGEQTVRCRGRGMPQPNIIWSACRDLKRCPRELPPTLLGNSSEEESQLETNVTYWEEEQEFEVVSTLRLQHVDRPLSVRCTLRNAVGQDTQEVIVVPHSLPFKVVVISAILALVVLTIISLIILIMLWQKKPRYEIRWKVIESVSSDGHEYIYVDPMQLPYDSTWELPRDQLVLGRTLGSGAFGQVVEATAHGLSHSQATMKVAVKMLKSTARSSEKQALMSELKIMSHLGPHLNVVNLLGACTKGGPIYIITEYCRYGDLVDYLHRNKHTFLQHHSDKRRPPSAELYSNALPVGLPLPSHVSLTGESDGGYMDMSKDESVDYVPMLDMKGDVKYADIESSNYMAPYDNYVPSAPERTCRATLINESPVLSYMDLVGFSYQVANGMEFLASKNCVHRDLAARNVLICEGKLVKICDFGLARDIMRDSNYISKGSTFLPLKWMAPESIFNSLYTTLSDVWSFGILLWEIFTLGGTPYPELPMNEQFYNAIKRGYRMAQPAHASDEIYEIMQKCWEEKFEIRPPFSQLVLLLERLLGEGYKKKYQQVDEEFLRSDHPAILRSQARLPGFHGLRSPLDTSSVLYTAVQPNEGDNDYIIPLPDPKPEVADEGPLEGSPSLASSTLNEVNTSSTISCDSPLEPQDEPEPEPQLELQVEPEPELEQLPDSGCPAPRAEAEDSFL

As for `COc1cc(C)cc(O)c1C=C1C(=O)Nc2ccc(Br)c(C)c21` [10725/C06], the “PDGF Kinase %Inhibition” value on PDGF-R stood at 46.6%. Moreover, the “Met Kinase % Inhibition” value in the assay with MET was 54.7%. At FLK-1 receptor, the “Fik Kinase %Inhibition” value is recorded as -9.3%.

Turning to `O=C1Nc2ccc(S(=O)(=O)N3CCOCC3)cc2C1=Cc1sccc1Br` [10725/F02], at PDGF-R, the “PDGF Kinase %Inhibition” value was -15.1%. Besides, the “Met Kinase % Inhibition” value in the assay with MET is on record as 27.8%. Further, the “Fik Kinase %Inhibition” value on FLK-1 receptor was 5.8%.

For `O=C1Nc2ccc(S(=O)(=O)N3CCOCC3)cc2C1=Cc1ccc(N2CCOCC2)cc1` [10725/F08], the “PDGF Kinase %Inhibition” value on PDGF-R amounted to 28.9%. The “Met Kinase % Inhibition” value with MET came to 72.2%. Moreover, at FLK-1 receptor, the “Fik Kinase %Inhibition” value amounted to 8.9%.

In the case of `O=C1Nc2c(Br)cc(Br)cc2C1=Cc1ccc(Br)o1` [10726/A05], on PDGF-R, the “PDGF Kinase %Inhibition” value came out at 22.1%. Moreover, in the assay on MET, the “Met Kinase % Inhibition” value is listed as 75.2%. Further, the “Fik Kinase %Inhibition” value at FLK-1 receptor is reported as -7.1%.

Turning to `Cc1ccc(C=C2C(=O)Nc3ccc(CCCl)cc32)o1` [10725/G04], the “PDGF Kinase %Inhibition” value at PDGF-R is recorded as -8.9%. Moreover, in the assay on MET, the “Met Kinase % Inhibition” value was found to be 47.1%. The “Fik Kinase %Inhibition” value at FLK-1 receptor came out at 6.1%.

In the case of `CCOC(=O)c1[nH]c(C=C2C(=O)Nc3ccc(Br)c(C)c32)c(C(=O)OC)c1C` [10726/C03], the “PDGF Kinase %Inhibition” value at PDGF-R was determined as 28.4%. Besides, the “Met Kinase % Inhibition” value in the assay on MET is reported as 38.9%. Further, at FLK-1 receptor, the “Fik Kinase %Inhibition” value was determined as 24.9%.

In the case of `CNS(=O)(=O)c1ccc2c(c1)C(=Cc1[nH]c(Cl)c(CC(=O)OC)c1C(=O)OC)C(=O)N2` [10725/D09], the “PDGF Kinase %Inhibition” value at PDGF-R is given as 35.6%. For the same compound, the “Met Kinase % Inhibition” value with MET amounted to 28.0%. Further, the “Fik Kinase %Inhibition” value on FLK-1 receptor is given as -0.9%.

With `O=C1Nc2ccc(F)cc2C1=C1C(=O)Nc2c(Br)cc(Br)cc21` [10726/A08], the “PDGF Kinase %Inhibition” value at PDGF-R is 10.7%. Further, the “Met Kinase % Inhibition” value in the assay with MET was found to be 63.1%. On FLK-1 receptor, the “Fik Kinase %Inhibition” value is recorded as -4.0%.

Consider `Cc1c(Br)ccc2c1C(=Cc1c[nH]cn1)C(=O)N2` [10725/C11], for which the “PDGF Kinase %Inhibition” value on PDGF-R is listed as 80.7%. Moreover, the “Met Kinase % Inhibition” value in the assay on MET is listed as 48.4%. Also, the “Fik Kinase %Inhibition” value on FLK-1 receptor amounted to 104.5%.

Take `Cc1ccc(C=C2C(=O)Nc3ccc(S(=O)(=O)N4CCOCC4)cc32)o1` [10725/F04]: at PDGF-R, the “PDGF Kinase %Inhibition” value was -4.6%. Moreover, the “Met Kinase % Inhibition” value in the assay with MET is reported as 38.1%. Moreover, at FLK-1 receptor, the “Fik Kinase %Inhibition” value is recorded as -6.9%.

In the case of `COc1ccc(Br)c(C=C2C(=O)Nc3ccc(S(=O)(=O)Nc4ccc(C(F)(F)F)cc4)cc32)c1O` [10725/E03], at PDGF-R, the “PDGF Kinase %Inhibition” value was 10.7%. For the same compound, the “Met Kinase % Inhibition” value with MET came out at 60.9%. In addition, the “Fik Kinase %Inhibition” value on FLK-1 receptor is reported as -0.8%.

Take `Cc1cc(C=C2C(=O)Nc3ccc(Br)c(C)c32)cc(C(C)(C)C)c1O` [10726/C04]: the “PDGF Kinase %Inhibition” value on PDGF-R is 36.6%. For the same compound, the “Met Kinase % Inhibition” value in the assay on MET was determined as 91.7%. Moreover, on FLK-1 receptor, the “Fik Kinase %Inhibition” value worked out at 12.3%.

Regarding `O=CN1CCN(c2ccc(C=C3C(=O)Nc4ccc(S(=O)(=O)Nc5ccc(C(F)(F)F)cc5)cc43)cc2)CC1` [10725/E07], at PDGF-R, the “PDGF Kinase %Inhibition” value is given as 28.9%. Besides, the “Met Kinase % Inhibition” value with MET is reported as 45.3%. In addition, on FLK-1 receptor, the “Fik Kinase %Inhibition” value is on record as 9.7%.

Regarding `O=C1Nc2ccc(S(=O)(=O)Nc3ccc(C(F)(F)F)cc3)cc2C1=Cc1c(Br)cnn1-c1ccc(Cl)cc1` [10725/E10], the “PDGF Kinase %Inhibition” value at PDGF-R is 28.4%. The “Met Kinase % Inhibition” value in the assay on MET is on record as -4.7%. Further, on FLK-1 receptor, the “Fik Kinase %Inhibition” value came to 9.3%.

Regarding `O=C1Nc2ccc(CCCl)cc2C1=Cc1c(Br)cnn1-c1ccc(Cl)cc1` [10725/G10], the “PDGF Kinase %Inhibition” value at PDGF-R is given as 44.7%. In addition, the “Met Kinase % Inhibition” value in the assay on MET was determined as 27.7%. In addition, the “Fik Kinase %Inhibition” value on FLK-1 receptor is 11.1%.

On to `CNS(=O)(=O)c1ccc2c(c1)C(=Cc1c[nH]cn1)C(=O)N2` [10725/D11], for which the “PDGF Kinase %Inhibition” value at PDGF-R is 23.2%. For the same compound, the “Met Kinase % Inhibition” value in the assay with MET turned out to be 100.5%. The “Fik Kinase %Inhibition” value on FLK-1 receptor was 13.6%.

Take `CCc1ccc(C=C2C(=O)Nc3c(Br)cc(Br)cc32)s1` [10726/A10]: at PDGF-R, the “PDGF Kinase %Inhibition” value is recorded as 8.1%. Besides, in the assay with MET, the “Met Kinase % Inhibition” value stood at 58.9%. The “Fik Kinase %Inhibition” value on FLK-1 receptor came to 3.7%.

Turning to `CNS(=O)(=O)c1ccc2c(c1)C(=Cc1c(O)cc(C)cc1OC)C(=O)N2` [10725/D06], the “PDGF Kinase %Inhibition” value at PDGF-R is listed as 21.7%. Also, the “Met Kinase % Inhibition” value in the assay with MET was 24.7%. Moreover, at FLK-1 receptor, the “Fik Kinase %Inhibition” value is -0.5%.

With `COc1ccc(Br)c(C=C2C(=O)Nc3ccc(S(=O)(=O)N4CCOCC4)cc32)c1O` [10725/F03], the “PDGF Kinase %Inhibition” value on PDGF-R is reported as -27.1%. Also, the “Met Kinase % Inhibition” value in the assay with MET is 63.2%. The “Fik Kinase %Inhibition” value on FLK-1 receptor is 4.3%.

As for `Cc1cn(C)cc1C=C1C(=O)Nc2c(Br)cc(Br)cc21` [10726/A06], the “PDGF Kinase %Inhibition” value at PDGF-R is reported as 22.1%. The “Met Kinase % Inhibition” value with MET worked out at 54.7%. For the same compound, the “Fik Kinase %Inhibition” value on FLK-1 receptor is given as -4.6%.

Regarding `Cc1cn(C)cc1C=C1C(=O)Nc2ccc(Br)c(C)c21` [10726/C06], the “PDGF Kinase %Inhibition” value on PDGF-R is 36.0%. The “Met Kinase % Inhibition” value in the assay on MET is recorded as 42.6%. Also, at FLK-1 receptor, the “Fik Kinase %Inhibition” value came to 23.8%.

`CCc1ccc(C=C2C(=O)Nc3ccc(I)cc32)s1` [10726/B10]: the “PDGF Kinase %Inhibition” value on PDGF-R is given as 6.2%. For the same compound, the “Met Kinase % Inhibition” value in the assay on MET turned out to be 58.5%. The “Fik Kinase %Inhibition” value on FLK-1 receptor was 3.7%.

The record behind these values is patent publication EP1247803A2, “Indolinone compounds suitable for modulation of protein kinases” (Sugen, Inc., priority 1996, dated 1998).
